Some test systems named below: OVCAR-8 ovarian; OVCAR-4 ovarian; SK-MEL-28 melanoma; HOP-62 NSCLC; SW-620 colon; T-47D breast; OVCAR-3 ovarian; U251 CNS; HS 578T breast; A498 renal.
What all share (test): inhibition of tumour cell growth, NCI panel, 48 h

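Interpolation was linear, between the two tested concentrations surrounding the appropriate level; five concentrations were tested over 48 hours in 96-well plates. At the TGI there is no net growth.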

As to `COc1cc2c(c(OC)c1)C(=O)O[C@H](C)CCCC/C=C/C2`, the TGI in the assay with OVCAR-8 ovarian was greater than 100 µM; in the assay with OVCAR-4 ovarian it was greater than 31.4 µM; in the assay with SK-MEL-28 melanoma, greater than 34.1 µM; with HOP-62 NSCLC, 24.7 µM; in the assay on SW-620 colon, 22.9 µM; in the assay on T-47D breast it was greater than 31.6 µM. Also, the TGI in the assay with OVCAR-3 ovarian was 28 µM; in the assay with U251 CNS, 30.5 µM; in the assay on HS 578T breast it was greater than 100 µM; in the assay on A498 renal, greater than 100 µM.

Take `O=[N+]([O-])c1cc(F)ccc1Sc1ccccc1`: the TGI with OVCAR-8 ovarian, in the assay with OVCAR-4 ovarian, in the assay on SK-MEL-28 melanoma, in the assay with HOP-62 NSCLC, in the assay on SW-620 colon and in the assay on T-47D breast was greater than 10 µM throughout. For the same compound, the TGI with OVCAR-3 ovarian, in the assay on U251 CNS, in the assay with HS 578T breast and in the assay on A498 renal was greater than 10 µM throughout.

As to `COC(=O)/C=c1/c2ccccc2n2c1c1ccccc1[n+]2C`, the TGI in the assay on OVCAR-8 ovarian is 15.7 µM; in the assay on OVCAR-4 ovarian, 15.9 µM; with SK-MEL-28 melanoma, 19.9 µM; with HOP-62 NSCLC, 15.3 µM; with SW-620 colon, 12.3 µM; in the assay with T-47D breast it was greater than 100 µM. Further, the TGI with OVCAR-3 ovarian is 21.9 µM; in the assay with U251 CNS, 19.4 µM; in the assay on HS 578T breast it was greater than 100 µM; with A498 renal, 14.6 µM.

Regarding `CC(=O)NC(=O)NC1=NCCC(=O)N1CCc1c[nH]c2ccccc12`, the TGI in the assay with OVCAR-8 ovarian, in the assay with OVCAR-4 ovarian, in the assay with SK-MEL-28 melanoma, with HOP-62 NSCLC, in the assay on SW-620 colon and in the assay on T-47D breast was greater than 100 µM in each case. In addition, the TGI in the assay with OVCAR-3 ovarian, in the assay on U251 CNS, with HS 578T breast and in the assay with A498 renal was greater than 100 µM throughout.

`Nn1c(Sc2nc3ccccc3c(=O)n2N)nc2ccccc2c1=O`: the TGI is 11.1 µM with OVCAR-8 ovarian; greater than 100 µM in the assay on OVCAR-4 ovarian; 13.1 µM in the assay with SK-MEL-28 melanoma; 35.9 µM in the assay on HOP-62 NSCLC; 7.13 µM in the assay on SW-620 colon; greater than 51.8 µM in the assay with T-47D breast. The TGI is 40.3 µM in the assay on OVCAR-3 ovarian, 20 µM with U251 CNS, greater than 53.7 µM in the assay with HS 578T breast and 36.5 µM in the assay on A498 renal.

On to `O=c1oc2cccnc2n1CCCCN1CCN(c2ccccc2)CC1`, for which the TGI in the assay with OVCAR-8 ovarian, in the assay on OVCAR-4 ovarian, with SK-MEL-28 melanoma, in the assay on HOP-62 NSCLC, in the assay with SW-620 colon and in the assay with T-47D breast was greater than 100 µM throughout. Further, the TGI in the assay on OVCAR-3 ovarian, with U251 CNS, with HS 578T breast and in the assay with A498 renal was greater than 100 µM in each case.

Regarding `COC(=O)C1CC23C=CCN4CC(C2C)C2(c5ccccc5NC12)C43` (stereo not given), the TGI in the assay with OVCAR-8 ovarian, in the assay on OVCAR-4 ovarian, in the assay with SK-MEL-28 melanoma, in the assay on HOP-62 NSCLC, in the assay with SW-620 colon and in the assay on T-47D breast was greater than 100 µM each time. Also, the TGI in the assay with OVCAR-3 ovarian, in the assay with U251 CNS, in the assay with HS 578T breast and in the assay with A498 renal was greater than 100 µM throughout.

Consider `O=C(O)COc1cc(-c2ccccc2)nc2ccccc12`, for which the TGI in the assay on OVCAR-8 ovarian, in the assay on OVCAR-4 ovarian, in the assay on SK-MEL-28 melanoma, with HOP-62 NSCLC, in the assay on SW-620 colon and in the assay on T-47D breast was greater than 100 µM each time. The TGI with OVCAR-3 ovarian, with U251 CNS, with HS 578T breast and in the assay with A498 renal was greater than 100 µM in each case.

On to `Cc1c(C#N)c(=N)oc2ccccc12`, for which the TGI in the assay with OVCAR-8 ovarian, in the assay with OVCAR-4 ovarian, in the assay on SK-MEL-28 melanoma, in the assay with HOP-62 NSCLC, in the assay on SW-620 colon and with T-47D breast was greater than 100 µM each time. Besides, the TGI in the assay on OVCAR-3 ovarian, in the assay with U251 CNS, in the assay with HS 578T breast and with A498 renal was greater than 100 µM each time.

As to `Nc1ccc2c(c1)NC(=O)[C@@H]1CCCN1C2=O`, the TGI in the assay on OVCAR-8 ovarian, with OVCAR-4 ovarian, in the assay with SK-MEL-28 melanoma, with HOP-62 NSCLC, in the assay on SW-620 colon and in the assay on T-47D breast was greater than 100 µM each time. Further, the TGI in the assay on OVCAR-3 ovarian, with U251 CNS, in the assay with HS 578T breast and with A498 renal was greater than 100 µM throughout.

Take `CC(C)(C)C(=O)N1CCN(C=O)C1=S`: the TGI in the assay with OVCAR-8 ovarian, in the assay with OVCAR-4 ovarian, in the assay with SK-MEL-28 melanoma, in the assay with HOP-62 NSCLC, in the assay on SW-620 colon and in the assay with T-47D breast was greater than 100 µM each time. For the same compound, the TGI with OVCAR-3 ovarian is greater than 100 µM; in the assay on U251 CNS, greater than 100 µM; with HS 578T breast, greater than 100 µM; with A498 renal, 80.8 µM.

Take `COC(=O)[C@](C)(Cc1ccccc1)NC(=O)[C@@H](C)N1[C@@H](c2ccccc2)COC1(C)C`: the TGI with OVCAR-8 ovarian, with OVCAR-4 ovarian, in the assay with SK-MEL-28 melanoma, in the assay on HOP-62 NSCLC, with SW-620 colon and in the assay on T-47D breast was greater than 100 µM each time. Also, the TGI in the assay on OVCAR-3 ovarian, with U251 CNS, with HS 578T breast and in the assay on A498 renal was greater than 100 µM each time.

For the compound `COC(=O)/C=C1\C(=O)C=C2[C@@H]3C[C@H]4C[C@H](CC[C@@]4(C)N21)C3(C)NC(C)=O` (stereo not given in full), the TGI with OVCAR-8 ovarian was 51.2 µM; in the assay on OVCAR-4 ovarian it was 44 µM; with SK-MEL-28 melanoma, 11.2 µM; in the assay with HOP-62 NSCLC, 60.7 µM; in the assay on SW-620 colon, 24.7 µM; in the assay with T-47D breast, greater than 27.8 µM. Moreover, the TGI is 29 µM in the assay with OVCAR-3 ovarian, greater than 56.9 µM in the assay on U251 CNS, 39 µM with HS 578T breast and 38.9 µM with A498 renal.

In the case of `CCN(CC)C1Oc2cc3c(cc2C(c2cc(OC)c(OC)c(OC)c2)C1C)OCO3` (stereo not given), the TGI with OVCAR-8 ovarian was greater than 43.2 µM; in the assay with OVCAR-4 ovarian it was greater than 100 µM; with SK-MEL-28 melanoma, 34.3 µM; with HOP-62 NSCLC, 12.9 µM; with SW-620 colon it was greater than 63.1 µM; in the assay with T-47D breast, greater than 88.7 µM. The TGI in the assay on OVCAR-3 ovarian was 5.79 µM; in the assay with U251 CNS it was 6.89 µM; in the assay on HS 578T breast, greater than 100 µM; in the assay on A498 renal it was 6.65 µM.

For `CC1=CC[C@](C)(O)[C@@]2(C)CC[C@H]3C(=C(C)C)C(=O)C[C@]3(C)C[C@H]12`, the TGI with OVCAR-8 ovarian, in the assay on OVCAR-4 ovarian, in the assay with SK-MEL-28 melanoma, in the assay on HOP-62 NSCLC, with SW-620 colon and in the assay with T-47D breast was greater than 50 µM each time. Besides, the TGI in the assay on OVCAR-3 ovarian, in the assay on U251 CNS, in the assay with HS 578T breast and with A498 renal was greater than 50 µM in each case.

Turning to `O=C1c2ccccc2C(=O)c2nn(N=P(CP(=Nn3nc4c(n3)C(=O)c3ccccc3C4=O)(c3ccccc3)c3ccccc3)(c3ccccc3)c3ccccc3)nc21`, the TGI with OVCAR-8 ovarian, in the assay with OVCAR-4 ovarian, with SK-MEL-28 melanoma, with HOP-62 NSCLC, with SW-620 colon and in the assay with T-47D breast was greater than 100 µM in each case. For the same compound, the TGI in the assay with OVCAR-3 ovarian, with U251 CNS, in the assay with HS 578T breast and with A498 renal was greater than 100 µM each time.

Take `Cn1c2ccc(C3=NCCN3)cc2c2cc(C3=NCCN3)ccc21`: the TGI in the assay with OVCAR-8 ovarian, in the assay with OVCAR-4 ovarian, in the assay on SK-MEL-28 melanoma, in the assay with HOP-62 NSCLC, with SW-620 colon and with T-47D breast was greater than 100 µM each time. Moreover, the TGI with OVCAR-3 ovarian, with U251 CNS, with HS 578T breast and in the assay on A498 renal was greater than 100 µM each time.

The values above are taken from PubChem BioAssay (NCI).
